From PubChem BioAssay AID248 (DTP/NCI, 2004)
Values joined by “and” are separate entries in the source; they are usually repeats but may differ in a detail not shown here. Equal entries are not always repeated. Inconclusive results and toxic doses are left out. Cut-off read from the data, not from the text of the source: active = T/C of 150% or more; inactive = T/C below 125%.

System: L1210 leukemia ip in BDF1 mice, survival T/C
Assay: NCI In Vivo Anticancer Drug Screen. Data for tumor model L1210 Leukemia (intraperitoneal) in B6D2F1 (BDF1) mice
Settings: endpoint: mean survival time, higher = longer survival
Procedure, shortened: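 Tumor was transplanted into mice, which were then dosed with test compound or vehicle alone. Survival was recorded for each group, and the treated figure was expressed relative to the control figure.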

[1] = dose: 100.0 mg/kg/injection, schedule: Q01DX001 (ip), vehicle: other
[2] = dose: 200.0 mg/kg/injection, schedule: Q01DX001 (ip), vehicle: other
[3] = dose: 400.0 mg/kg/injection, schedule: Q01DX001 (ip), vehicle: other
[4] = dose: 100.0 mg/kg/injection, schedule: Q01DX001 (ip), vehicle: saline
[5] = dose: 200.0 mg/kg/injection, schedule: Q01DX001 (ip), vehicle: saline
[6] = dose: 400.0 mg/kg/injection, schedule: Q01DX001 (ip), vehicle: saline
[7] = dose: 12.5 mg/kg/injection, schedule: Q04DX003 (ip), vehicle: saline
[8] = dose: 25.0 mg/kg/injection, schedule: Q04DX003 (ip), vehicle: saline
[9] = dose: 50.0 mg/kg/injection, schedule: Q04DX003 (ip), vehicle: saline
[10] = dose: 50.0 mg/kg/injection, schedule: Q01DX009 (ip), vehicle: saline with Tween-80
[11] = dose: 100.0 mg/kg/injection, schedule: Q01DX009 (ip), vehicle: saline with Tween-80
[12] = dose: 100.0 mg/kg/injection, schedule: Q04DX002 (ip), vehicle: Klucel (hydroxypropylcellulose) (HPC)
[13] = dose: 200.0 mg/kg/injection, schedule: Q04DX002 (ip), vehicle: Klucel (hydroxypropylcellulose) (HPC)
[14] = dose: 400.0 mg/kg/injection, schedule: Q04DX002 (ip), vehicle: Klucel (hydroxypropylcellulose) (HPC)
[15] = dose: 100.0 mg/kg/injection, schedule: Q01DX009 (ip), vehicle: Klucel (hydroxypropylcellulose) (HPC)
[16] = dose: 200.0 mg/kg/injection, schedule: Q01DX009 (ip), vehicle: Klucel (hydroxypropylcellulose) (HPC)
[17] = dose: 200.0 mg/kg/injection, schedule: Q01DX009 (ip), vehicle: saline with Tween-80

Measured: T/C

C#CCOS(C)(=O)=O
inactive: dose: 10.0 mg/kg/injection, schedule: Q01DX009 (ip), vehicle: saline 108 % of control | dose: 10.0 mg/kg/injection, schedule: Q04DX002 (ip), vehicle: saline 107 % of control | dose: 20.0 mg/kg/injection, schedule: Q01DX009 (ip), vehicle: saline 124 % of control | dose: 20.0 mg/kg/injection, schedule: Q04DX002 (ip), vehicle: saline 103 % of control | dose: 40.0 mg/kg/injection, schedule: Q04DX002 (ip), vehicle: saline 103 % of control

O=C(N/N=C\c1ccc(Cl)cc1Cl)c1ccco1
inactive: [1] 90 % of control | [2] 96 % of control | [3] 93 % of control

C/C=C/C(=O)C12CCCCCCCCCC(=C1N1CCCCC1)C(=O)CC2C (stereo unspecified)
inactive: [4] 93 % of control | dose: 100.0 mg/kg/injection, schedule: Q01DX009 (ip), vehicle: saline 90 % of control | [5] 98 % of control | dose: 200.0 mg/kg/injection, schedule: Q01DX009 (ip), vehicle: saline 92 % of control | [6] 98 % of control | dose: 400.0 mg/kg/injection, schedule: Q01DX009 (ip), vehicle: saline 98 % of control

O=C(O)Cc1ccc2c(c1)C(=O)C(=O)N2
inactive: dose: 100.0 mg/kg/injection, schedule: Q04DX003 (ip), vehicle: saline 95 % of control | dose: 200.0 mg/kg/injection, schedule: Q04DX003 (ip), vehicle: saline 102 % of control | dose: 400.0 mg/kg/injection, schedule: Q04DX003 (ip), vehicle: saline 89 % of control

O=c1[nH]nc(SCc2ccccc2)c(=O)n1C(c1ccccc1)c1ccccc1
inactive: [1] 90 % of control | [2] 90 % of control | [3] 98 % of control

[NH-]C(Cc1ccccc1)C(=O)O.[NH-]C(Cc1ccccc1)C(=O)O.[Ni+2] (stereo unspecified)
inactive: [7] 95 % of control | [8] 95 % of control | [9] 98 % of control

COCC(O)CCl (stereo unspecified)
inactive: dose: 25.0 mg/kg/injection, schedule: Q01DX009 (ip), vehicle: saline with Tween-80 113 % of control | [10] 113 % of control | [11] 113 % of control

C/C([O-])=C(/c1nc(-c2ccc([N+](=O)[O-])o2)no1)[n+]1cc(C)ccc1C
inactive: [12] 95 % of control | [13] 91 % of control | [14] 87 % of control

c1cc2c(c(OCC3=NCCN3)c1)CCCC2
inactive: dose: 100.0 mg/kg/injection, schedule: Q04DX002 (ip), vehicle: saline 94 % of control

O=C(O)c1cc([N+](=O)[O-])c(C(=O)O)c([N+](=O)[O-])c1
inactive: dose: 75.0 mg/kg/injection, schedule: Q01DX001 (ip), vehicle: other 94 % of control | dose: 150.0 mg/kg/injection, schedule: Q01DX001 (ip), vehicle: other 95 % of control | dose: 300.0 mg/kg/injection, schedule: Q01DX001 (ip), vehicle: other 96 % of control

COc1cccc(N2C(=O)C3C(C2=O)C2(Cl)C(Cl)=C(Cl)C3(Cl)C2(Cl)Cl)c1 (stereo unspecified)
inactive: [15] 98 % of control | [16] 94 % of control | dose: 400.0 mg/kg/injection, schedule: Q01DX009 (ip), vehicle: Klucel (hydroxypropylcellulose) (HPC) 89 % of control

NC(N)=N/N=C/c1ccccc1O
inactive: dose: 15.0 mg/kg/injection, schedule: Q01DX Z (ip), vehicle: saline 98 % of control and 91 % of control | dose: 31.0 mg/kg/injection, schedule: Q01DX Z (ip), vehicle: saline 87 % of control and 91 % of control | dose: 63.0 mg/kg/injection, schedule: Q01DX Z (ip), vehicle: saline 87 % of control | dose: 125.0 mg/kg/injection, schedule: Q01DX Z (ip), vehicle: saline 87 % of control

CCOC(=O)COc1c(C)cccc1Cl
inactive: dose: 100.0 mg/kg/injection, schedule: Q04DX002 (ip), vehicle: saline with Tween-80 111 % of control | dose: 200.0 mg/kg/injection, schedule: Q04DX002 (ip), vehicle: saline with Tween-80 114 % of control

Cc1nc(N)c2c(ncn2C2OC(CO)C(O)C2O)n1 (stereo unspecified)
inactive: [4] 100 % of control | [5] 108 % of control | [6] 105 % of control

O=C(COc1ccc(Cl)cc1)Nc1ccccc1
inactive: [12] 109 % of control | [13] 98 % of control | [14] 103 % of control

CCCCCCCCCCCCc1ccc(-c2cc(-c3ccccc3)cc(-c3ccccc3)c2)cc1
inactive: dose: 75.0 mg/kg/injection, schedule: Q01DX001 (ip), vehicle: saline 100 % of control | dose: 150.0 mg/kg/injection, schedule: Q01DX001 (ip), vehicle: saline 89 % of control | dose: 300.0 mg/kg/injection, schedule: Q01DX001 (ip), vehicle: saline 94 % of control

CC1=C2[C@H]3OC(=O)[C@@H](C)[C@@H]3CC[C@@]2(C)C=C/C1=N\O
inactive: [4] 101 % of control | [5] 98 % of control

O=C(NCCc1ccccc1)c1ccc(Cl)cc1
inactive: [12] 115 % of control | [13] 92 % of control | [14] 89 % of control

CN(C)C/C(=N\O)c1ccc(Cl)cc1
inactive: dose: 50.0 mg/kg/injection, schedule: Q01DX009 (ip), vehicle: Klucel (hydroxypropylcellulose) (HPC) 93 % of control | [4] 97 % of control | [15] 93 % of control | [5] 100 % of control | [16] 100 % of control

CC(C)(CO)N(CC(=O)O)CC(=O)O
inactive: [4] 101 % of control | [5] 103 % of control

O=[N+]([O-])c1ccc(SSc2ccc([N+](=O)[O-])cc2)cc1
inactive: [11] 95 % of control | [12] 115 % of control | [17] 87 % of control | [13] 100 % of control | dose: 400.0 mg/kg/injection, schedule: Q01DX009 (ip), vehicle: saline with Tween-80 94 % of control | [14] 86 % of control

O=C(CNC(=O)Nc1ccc(Cl)c(Cl)c1)N/N=C/C=C/c1ccccc1
inactive: [10] 96 % of control | [11] 96 % of control | [17] 93 % of control

Nc1nc(N)c2cc(NCc3ccccc3Cl)ccc2n1
inactive: dose: 3.12 mg/kg/injection, schedule: Q01DX009 (ip), vehicle: saline with Tween-80 111 % of control | dose: 6.25 mg/kg/injection, schedule: Q01DX009 (ip), vehicle: saline with Tween-80 103 % of control | dose: 6.25 mg/kg/injection, schedule: Q04DX003 (ip), vehicle: saline 94 % of control | dose: 12.5 mg/kg/injection, schedule: Q01DX009 (ip), vehicle: saline with Tween-80 95 % of control | [7] 102 % of control | dose: 25.0 mg/kg/injection, schedule: Q01DX001 (ip), vehicle: acetone 100 % of control

C1CC[N+]2(CC1)CCC2
inactive: dose: 12.0 mg/kg/injection, schedule: Q04DX003 (ip), vehicle: saline 106 % of control | dose: 12.5 mg/kg/injection, schedule: Q01DX009 (ip), vehicle: saline 97 % of control | dose: 25.0 mg/kg/injection, schedule: Q01DX009 (ip), vehicle: saline 100 % of control | [8] 94 % of control | dose: 50.0 mg/kg/injection, schedule: Q01DX009 (ip), vehicle: saline 100 % of control | [9] 111 % of control | [4] 107 % of control | [5] 115 % of control
